Data on 40 compounds can be found in patent US10266526B2, “Substituted 1,2,3-triazoles as SMYD inhibitors for treating cancer” (EPIZYME, INC., priority 2014, dated 2019).

Like-named read-outs stand apart in the source and are kept apart here. Where only a bound is given, the exact number is not on record here.

In one assay the target is SMYD2 (Homo sapiens (Human), UniProt Q9NRG4). Nature of the assay: SMYD2 biochemical assay (SMYD2 enzyme assay on peptide substrate, 3H-SAM Flashplate).
In another assay the target is SMYD3 (Homo sapiens (Human), UniProt Q9H7B4). As to the kind of experiment: SMYD3 biochemical assay (SMYD3 enzyme assay on MEKK2 protein substrate, 3H-SAM scintillation proximity assay). The note with it: Table 1A; average of n = 1 to n = 50; read-out: SMYD3 Biochem IC50. The procedure, abridged:
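Native full-length human SMYD3, expressed in E. coli, was preincubated with compound for 30 min at room temperature in 25 mM Tris-Cl pH 8.0, 1 mM TCEP, 0.005% BSG and 0.005% Tween 20. ³H-SAM plus GST-MEKK2 then started the reaction. It was stopped with unlabeled SAM (100 uM final), and methylated MEKK2 was read by SPA.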
Background: Scintillation proximity formats need no separation of bound from free tracer.

[1] abbreviates: SMYD2 Biochem IC50, IC50 values are an average of n = 1 to n = 50.
Where [2] appears, read: read-out: SMYD2 Biochem IC50, IC50 values are an average of n = 1 to n = 50.

Chain of SMYD2 (Q9NRG4 whole entry): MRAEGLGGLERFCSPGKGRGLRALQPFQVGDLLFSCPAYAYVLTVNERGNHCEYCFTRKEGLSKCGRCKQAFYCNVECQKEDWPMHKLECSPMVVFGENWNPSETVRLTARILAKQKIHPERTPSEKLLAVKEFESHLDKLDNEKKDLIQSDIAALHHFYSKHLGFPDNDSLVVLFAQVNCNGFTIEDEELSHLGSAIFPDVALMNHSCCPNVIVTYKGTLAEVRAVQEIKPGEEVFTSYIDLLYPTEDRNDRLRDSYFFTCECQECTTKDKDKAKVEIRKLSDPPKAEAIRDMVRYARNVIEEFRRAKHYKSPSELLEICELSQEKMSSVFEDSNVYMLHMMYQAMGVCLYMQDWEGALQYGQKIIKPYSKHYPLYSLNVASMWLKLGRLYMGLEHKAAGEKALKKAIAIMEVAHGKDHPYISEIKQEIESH
Chain of SMYD3 (Q9H7B4 whole entry): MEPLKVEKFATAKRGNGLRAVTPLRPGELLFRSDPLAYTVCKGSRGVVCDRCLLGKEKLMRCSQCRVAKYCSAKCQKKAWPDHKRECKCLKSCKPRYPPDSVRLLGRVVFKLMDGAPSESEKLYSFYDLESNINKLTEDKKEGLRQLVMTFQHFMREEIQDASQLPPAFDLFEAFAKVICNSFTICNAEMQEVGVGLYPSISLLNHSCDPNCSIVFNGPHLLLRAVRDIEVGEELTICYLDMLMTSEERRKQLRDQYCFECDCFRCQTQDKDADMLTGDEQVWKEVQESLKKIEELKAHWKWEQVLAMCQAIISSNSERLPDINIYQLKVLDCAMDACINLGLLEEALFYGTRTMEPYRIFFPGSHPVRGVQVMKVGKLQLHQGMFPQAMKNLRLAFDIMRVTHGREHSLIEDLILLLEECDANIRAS
Source text for SMYD2: S-adenosylmethionine (SAM), S-adenosylhomocysteine (SAH), bicine, Tween20, dimethylsulfoxide (DMSO), bovine skin gelatin (BSG), and Tris(2-carboxyethyl)phosphine hydrochloride (TCEP) were purchased from Sigma-Aldrich at the highest level of purity possible. ^3H-SAM was purchase from American Radiolabeled Chemicals with a specific activity of 80 Ci/mmol. 384-well streptavidin Flashplates were purchased from PerkinElmer.
The sequence was [sequence](K-Biot)-amide.
Production of Recombinant SMYD2 Enzymes for Biochemical Enzyme Activity Assays
Full length SMYD2 (NP_064582.2) was cloned into a pFastbac-Htb-lic vector with an N-terminal His6 tag and FLAG tag, preceded by a TEV protease cleavage site. The protein was expressed in Sf9 insect cells. Cells were resuspended in lysis buffer (25 mM HEPES-NaOH, pH 7.5, 200 mM NaCl, 5% glycerol, and 5 mM (3-ME) and lysed by sonication. The protein was purified by Ni-NTA (Qiagen), followed by TEV cleavage to remove the His6 tag, subtractive Ni-NTA (Qiagen), and gel filtration chromatography using an S200 column (GE Healthcare). Purified protein was stored in 20 mM Tris-HCl, pH 8.0, 100 mM NaCl, and 1 mM TCEP.
General Procedure for SMYD2 Enzyme Assays on Peptide Substrates
The assays were all performed in a buffer consisting of 20 mM Bicine (pH=7.6), 1 mM TCEP, 0.005% Bovine Skin Gelatin, and 0.002% Tween20, prepared on the day of use. […] DMSO (1 ul) was added to Columns 11, 12, 23, 24, rows A-H for the maximum signal control and 1 ul of SAH, a known product and inhibitor of SMYD2, was added to columns 11, 12, 23, 24, rows I-P for the minimum signal control. A cocktail (40 ul) containing the SMYD2 enzyme was added by Multidrop Combi (Thermo-Fisher). The compounds were allowed to incubate with SMYD2 for 30 min at room temperature, then a cocktail (10 ul) containing ^3H-SAM and peptide was added to initiate the reaction (final volume=51 ul). […] The assays were stopped by the addition of non-radioactive SAM (10 ul) to a final concentration of 600 uM, which dilutes the ^3H-SAM to a level where its incorporation into the peptide substrate is no longer detectable. 50 ul of the reaction in the 384-well polypropylene plate was then transferred to a 384-well Flashplate and the biotinylated peptides were allowed to bind to the streptavidin surface for at least 1 hour before being washed three times with 0.1% Tween20 in a Biotek ELx405 plate washer. The plates were then read in a PerkinElmer TopCount plate reader to measure the quantity of ^3H-labeled peptide bound to the Flashplate surface, measured as disintegrations per minute (dpm) or alternatively, referred to as counts per minute (cpm).
Where dpm=disintegrations per minute, cmpd=signal in assay well, and min and max are the respective minimum and maximum signal controls.
Where top and bottom are the normally allowed to float, but may be fixed at 100 or 0 respectively in a 3-parameter fit. The Hill Coefficient normally allowed to float but may also be fixed at 1 in a 3-parameter fit. I is the compound concentration.

Compound `C[C@H](c1ccccc1)N1C[C@@H](NC(=O)c2cn(C3CC3)nn2)C1(C)C` (racemic) [compound 984, rac-1-cyclopropyl-N-((R)-2,2-dimethyl-1-((R)-1-phenylethyl)azetidin-3-yl)-1H-1,2,3-triazole-4-carboxamide] gave an IC50 on SMYD2 of 18.9 µM.

Turning to `C[C@@H](c1ccccc1)N1C[C@@H](NC(=O)c2cn(C3CC3)nn2)C1(C)C` (racemic) [compound 1026, rac-1-cyclopropyl-N-((R)-2,2-dimethyl-1-((S)-1-phenylethyl)azetidin-3-yl)-1H-1,2,3-triazole-4-carboxamide], the concentration for half-maximal inhibition (IC50) against SMYD2 came out at 0.91 µM.

The compound `C[C@@H](c1ccc(OCc2ccccc2)cc1)N1CC(NC(=O)c2cn(C3CC3)nn2)C1` (single isomer, unassigned) [compound 778] came in with an IC50 against SMYD2 (setting [1]) of 0.0845 µM.

Turning to `C[C@H](c1ccc(OCc2ccccc2)cc1)N1CC(NC(=O)c2cn(C3CC3)nn2)C1` (single isomer, unassigned) [compound 788], 0.414 µM corresponded to half-maximal inhibition on SMYD2 (setting [1]) (IC50).

As to `C[C@@H](c1cccc(OCCO)c1Cl)N1CC(NC(=O)c2cn(C3CC3)nn2)C1` (single isomer, unassigned) [compound 831], the IC50 at SMYD2 (setting [2]) was 0.0578 µM.

Consider `C[C@H](c1cccc(OCCO)c1Cl)N1CC(NC(=O)c2cn(C3CC3)nn2)C1` (single isomer, unassigned) [compound 832], for which the midpoint of inhibition against SMYD2, the IC50, lay at 14.3 µM.

With `Cc1cc2cc(C(=O)NC(C)C3CCN(C(=O)[C@H](C)N)CC3)ccc2[nH]1` (stereo partly drawn) [compound 538, N-(1-(1-(L-alanyl)piperidin-4-yl)ethyl)-2-methyl-1H-indole-5-carboxamide], the IC50 at SMYD3 is greater than 50 µM.

In the case of `N[C@H]1CC[C@H](C(=O)N[C@H]2CC[C@H](NC(=O)c3ncn[nH]3)CC2)CC1` [compound 539, N-((1R,4r)-4-((1r,4R)-4-aminocyclohexane-1-carboxamido)cyclohexyl)-1H-1,2,4-triazole-5-carboxamide], the IC50 on SMYD3 was greater than 50 µM.

Regarding `NCCCC(=O)N[C@H]1CC[C@H](NC(=O)c2nnc[nH]2)CC1` [compound 540, N-((1r,4r)-4-(4-aminobutanamido)cyclohexyl)-4H-1,2,4-triazole-3-carboxamide], the IC50 at SMYD3 is greater than 50 µM.

For the compound `N[C@H]1CC[C@H](NC(=O)c2n[nH]c(Cl)n2)CC1` [compound 541, N-((1r,4r)-4-aminocyclohexyl)-5-chloro-1H-1,2,4-triazole-3-carboxamide], the IC50 on SMYD3 was greater than 50 µM.

Take `Cc1[nH]cnc1C(=O)N[C@H]1CC[C@H](N)CC1` [compound 542, N-((1r,4r)-4-aminocyclohexyl)-5-methyl-1H-imidazole-4-carboxamide]: on SMYD3, the IC50 is greater than 50 µM.

As to `Cc1nnc(C(=O)N[C@H]2CC[C@H](NC(=O)CCN)CC2)[nH]1` [compound 543, N-((1r,4r)-4-(3-aminopropanamido)cyclohexyl)-5-methyl-4H-1,2,4-triazole-3-carboxamide], the IC50 at SMYD3 was greater than 50 µM.

Turning to `Cn1cnc(C(=O)N[C@H]2CC[C@H](N)CC2)n1` [compound 544, N-((1r,4r)-4-aminocyclohexyl)-1-methyl-1H-1,2,4-triazole-3-carboxamide], on SMYD3, the IC50 was greater than 50 µM.

As for `N[C@H]1CC[C@H](NC(=O)c2cc(Cl)[nH]n2)CC1` [compound 545, N-((1r,4r)-4-aminocyclohexyl)-5-chloro-1H-pyrazole-3-carboxamide], the IC50 on SMYD3 is greater than 50 µM.

As for `CC(NC(=O)c1n[nH]c(=O)[nH]1)C1CCN(C(=O)[C@H](C)N)CC1` (stereo partly drawn) [compound 546, N-(1-(1-(L-alanyl)piperidin-4-yl)ethyl)-5-oxo-4,5-dihydro-1H-1,2,4-triazole-3-carboxamide], the IC50 at SMYD3 is 9.76 µM.

For the compound `O=C(NC1CCN(C(=O)CC2CCNCC2)CC1)c1nnc[nH]1` [compound 547, N-(1-(2-(piperidin-4-yl)acetyl)piperidin-4-yl)-4H-1,2,4-triazole-3-carboxamide], the IC50 at SMYD3 is greater than 50 µM.

`N[C@H]1CC[C@H](NC(=O)c2nc(I)n[nH]2)CC1` [compound 548, N-((1r,4r)-4-aminocyclohexyl)-3-iodo-1H-1,2,4-triazole-5-carboxamide]: at SMYD3, the IC50 is greater than 50 µM.

Regarding `Cc1n[nH]c(C(=O)NC(C)C2CCN(C(=O)[C@H](C)N)CC2)n1` (stereo partly drawn) [compound 549, N-(1-(1-(L-alanyl)piperidin-4-yl)ethyl)-3-methyl-1H-1,2,4-triazole-5-carboxamide], the IC50 at SMYD3 is greater than 50 µM.

Regarding `Cc1nc(C(=O)N[C@H]2CC[C@H](N)CC2)n[nH]1` [compound 550, N-((1r,4r)-4-aminocyclohexyl)-5-methyl-1H-1,2,4-triazole-3-carboxamide], the IC50 on SMYD3 is 14.7 µM.

For the compound `CC(NC(=O)c1nc2ccncc2s1)C1CCN(C(=O)[C@H](C)N)CC1` (stereo partly drawn) [compound 551, N-(1-(1-(L-alanyl)piperidin-4-yl)ethyl)thiazolo[5,4-c]pyridine-2-carboxamide], on SMYD3, the IC50 was greater than 50 µM.

Regarding `CCc1cnc(C(=O)NC(C)C2CCN(C(=O)[C@H](C)N)CC2)s1` (stereo partly drawn) [compound 552, N-(1-(1-(L-alanyl)piperidin-4-yl)ethyl)-5-ethylthiazole-2-carboxamide], on SMYD3, the IC50 was 6.44 µM.

Consider `CCc1cnc(C(=O)N[C@H]2CC[C@H](NC(=O)CCN)CC2)s1` [compound 553, N-((1r,4r)-4-(3-aminopropanamido)cyclohexyl)-5-ethylthiazole-2-carboxamide], for which the IC50 on SMYD3 was 25.6 µM.

Turning to `CCc1cnc(C(=O)N[C@H]2CC[C@H](N)CC2)s1` [compound 554, N-((1r,4r)-4-aminocyclohexyl)-5-ethylthiazole-2-carboxamide], the IC50 at SMYD3 is greater than 50 µM.

For the compound `N[C@H]1CC[C@H](C(=O)N2CCC(NC(=O)c3nnc[nH]3)CC2)CC1` [compound 555, N-(1-((1r,4r)-4-aminocyclohexane-1-carbonyl)piperidin-4-yl)-4H-1,2,4-triazole-3-carboxamide], the IC50 at SMYD3 is greater than 50 µM.

Regarding `NCCC(=O)N1CCC(NC(=O)c2nnc[nH]2)CC1` [compound 556, N-(1-(3-aminopropanoyl)piperidin-4-yl)-4H-1,2,4-triazole-3-carboxamide], the IC50 at SMYD3 was greater than 50 µM.

Turning to `N[C@H]1CC[C@H](NC(=O)c2cc3c(cn2)NC(=O)C3)CC1` [compound 559, N-((1r,4r)-4-aminocyclohexyl)-2-oxo-2,3-dihydro-1H-pyrrolo[2,3-c]pyridine-5-carboxamide], the IC50 at SMYD3 amounted to 3.49 µM.

For the compound `CN(C(=O)c1ncn[nH]1)[C@H]1CC[C@H](N)CC1` [compound 561, N-((1r,4r)-4-aminocyclohexyl)-N-methyl-1H-1,2,4-triazole-5-carboxamide], the IC50 at SMYD3 is greater than 10 µM.

For the compound `Cc1c[nH]c(C(=O)N[C@H]2CC[C@H](N)CC2)n1` [compound 562, N-((1r,4r)-4-aminocyclohexyl)-4-methyl-1H-imidazole-2-carboxamide], the IC50 on SMYD3 is greater than 10 µM.

Regarding `N[C@H]1CC[C@H](NC(=O)c2cc3cc(Br)ccc3nc2O)CC1` [compound 565, N-((1r,4r)-4-aminocyclohexyl)-6-bromo-2-hydroxyquinoline-3-carboxamide], the IC50 on SMYD3 is greater than 10 µM.

Take `NCCC(=O)N[C@H]1CC[C@H](NC(=O)c2cc3cc(Br)ccc3nc2O)CC1` [compound 566, N-((1r,4r)-4-(3-aminopropanamido)cyclohexyl)-6-bromo-2-hydroxyquinoline-3-carboxamide]: the IC50 at SMYD3 was greater than 10 µM.

As to `Nc1nc(C(=O)N[C@H]2CC[C@H](N)CC2)c[nH]1` [compound 572, 2-amino-N-((1r,4r)-4-aminocyclohexyl)-1H-imidazole-4-carboxamide], the IC50 on SMYD3 is greater than 10 µM.

For the compound `N[C@H]1CC[C@H](NC(=O)c2cnc3ncccn23)CC1` [compound 574, N-((1r,4r)-4-aminocyclohexyl)imidazo[1,2-a]pyrimidine-3-carboxamide], the concentration for half-maximal inhibition (IC50) at SMYD3 is greater than 10 µM.

For the compound `CC(C)N1CC(NC(=O)c2cc(C3CC3)cnn2)C1` [compound 645, 5-cyclopropyl-N-[1-(propan-2-yl)azetidin-3-yl]pyridazine-3-carboxamide], on SMYD2 (setting [2]), the IC50 was determined as 0.745 µM.

`C[C@@H](c1ccccc1)N1CC(NC(=O)c2cc(C3CC3)cnn2)C1` [compound 646, 5-cyclopropyl-N-{1-[(1S)-1-phenylethyl]azetidin-3-yl}pyridazine-3-carboxamide]: the IC50 on SMYD2 (setting [2]) was found to be 0.516 µM.

On to `C[C@H](c1ccccc1)N1CC(NC(=O)c2cc(C3CC3)cnn2)C1` [compound 647, 5-cyclopropyl-N-{1-[(1R)-1-phenylethyl]azetidin-3-yl}pyridazine-3-carboxamide], for which the IC50 at SMYD2 (setting [2]) came out at 7.8 µM.

With `Cn1cnc(CN2CC(NC(=O)c3cc(C4CC4)cnn3)C2)c1Cl` [compound 648, N-{1-[(5-chloro-1-methyl-1H-imidazol-4-yl)methyl]azetidin-3-yl}-5-cyclopropylpyridazine-3-carboxamide], on SMYD2 (setting [2]), the IC50 is 7.33 µM.

In the case of `CC(c1cc(Cl)ccc1Cl)N1CC(NC(=O)c2cc(C3CC3)cnn2)C1` (stereo not shown) [compound 649, 5-cyclopropyl-N-{1-[1-(2,5-dichlorophenyl)ethyl]azetidin-3-yl}pyridazine-3-carboxamide], the IC50 on SMYD2 (setting [2]) was 0.14 µM.

With `COc1c(OCCO)cccc1C(C)N1CC(NC(=O)c2cc(C3CC3)cnn2)C1` (stereo not shown) [compound 650, 5-cyclopropyl-N-(1-{1-[3-(2-hydroxyethoxy)-2-methoxyphenyl]ethyl}azetidin-3-yl)pyridazine-3-carboxamide], at SMYD2 (setting [2]), the IC50 was 0.312 µM.

Turning to `O=C(NC1CN(Cc2ccccc2)C1)c1cc(C2CC2)cnn1` [compound 651, N-(1-benzylazetidin-3-yl)-5-cyclopropylpyridazine-3-carboxamide], the IC50 on SMYD2 (setting [2]) was 0.541 µM.

On to `CC(c1cccc(OCCO)c1Cl)N1CC(NC(=O)c2cc(C3CC3)cnn2)C1` (stereo not shown) [compound 652, N-(1-{1-[2-chloro-3-(2-hydroxyethoxy)phenyl]ethyl}azetidin-3-yl)-5-cyclopropylpyridazine-3-carboxamide], for which the IC50 at SMYD2 (setting [2]) is 0.0416 µM.

One may read the IC50 as the concentration that gives 50% inhibition.
